Measured values reported in patent US8497287B2, “Aminotetralin compounds as mu opioid receptor antagonists” (priority 2007, dated 2013).

Tests used:
human mu opioid receptor [1] = molecular target: T1, human mu opioid receptor (Homo sapiens, UniProt P35372); assay: biochemical; assay type: binding
T1 construct: host or cells: CHO-K1 cells, membranes

human mu opioid receptor [2] = molecular target: T1, human mu opioid receptor; assay: biochemical; conditions: read-out: intrinsic activity (IA), expressed as a percentage
[3] = test system: loperamide-induced delayed gastric emptying; assay: Rat gastric emptying assay, reversal of loperamide-induced delayed gastric emptying; assay type: in vivo; conditions: administered orally, loperamide 1 mg/kg s.c., gastric emptying model

T1 sequence (P35372 whole entry): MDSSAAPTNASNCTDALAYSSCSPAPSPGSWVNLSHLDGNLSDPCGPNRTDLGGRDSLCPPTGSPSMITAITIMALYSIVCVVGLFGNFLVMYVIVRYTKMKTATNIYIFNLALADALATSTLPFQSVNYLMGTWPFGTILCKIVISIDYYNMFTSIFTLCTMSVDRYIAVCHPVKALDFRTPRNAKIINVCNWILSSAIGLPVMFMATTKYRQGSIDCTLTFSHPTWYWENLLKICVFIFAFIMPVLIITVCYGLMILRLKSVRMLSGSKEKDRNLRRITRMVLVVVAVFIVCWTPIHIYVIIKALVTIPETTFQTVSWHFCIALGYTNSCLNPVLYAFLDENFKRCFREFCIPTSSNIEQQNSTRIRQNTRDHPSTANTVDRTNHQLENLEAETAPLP

COC1Cc2ccc(C(N)=O)cc2C(C)(C)C1NCCC(=O)N1CCCCC1 (racemic) [Example 1, trans-6-Methoxy-8,8-dimethyl-7-(3-oxo-3-piperidin-1-yl-propylamino)-5,6,7,8-tetrahydro-naphthalene-2-carboxylic acid amide]
Ki (human mu opioid receptor [1]): 0.1 nM
Emax (human mu opioid receptor [2]): 0%
ID50, dose required for 50% reversal of the effects of loperamide [3]: 0.48 mg/kg

CCC1(CC)c2cc(O)ccc2C[C@@H](OC)[C@@H]1NCC(Cc1ccccc1)C(=O)O (relative stereo) [Example 11, 2-Benzyl-3-(trans-1,1-diethyl-7-hydroxy-3-methoxy-1,2,3,4-tetrahydro-naphthalen-2-ylamino)-propionic acid]
Ki (human mu opioid receptor [1]): 1.26 nM
Emax (human mu opioid receptor [2]): -6%
